Patent publication US6979686B1, “Substituted pyrazoles as p38 kinase inhibitors” (Pharmacia Corporation, priority 2001, dated 2005)
Like-named read-outs stand apart in the source and are kept apart here. Blank lines part the entries; values can stand above or below the compound they belong to.

Tests used:
[1] = system: TNF-α, U937 human histiocytic lymphoma cell line; experiment: LPS stimulation of TNF production by U937 cells; format: cell-based; details: for inhibition at 1 µM: U-937, @ 1.0 uM
In short: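 U937 cells differentiated 24 h with 20 ng/ml PMA, rested 24-48 h, used at 2 million cells/ml. Compounds in 0.1% DMSO final; LPS (E. coli, 100 ng/ml final) stimulation for 4 h at 37° C. Released TNF-α measured by ELISA; IC50 (μM).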

human p38 kinase alpha = biological target: T1, human p38 kinase alpha (Homo sapiens, UniProt Q16539); experiment: p38 kinase in vitro assay, phosphorylation of biotinylated PHAS-I with 32P-ATP; format: biochemical; details: for inhibition at 1 µM: read-out: P38 alpha kinase % inhib @ conc.
T1 construct: GST (N, cleaved yes); made in house; host or cells: E. coli DH10B

[2] = @ 1.0 uM, TNF production, U937 cells stimulated with LPS
[3] = Homo sapiens, TNF production in human U937 cells stimulated with LPS, read-out: U937 Cell % inhib @ conc.
[4] = in vitro P38-alpha kinase inhibition, read-out: P38 alpha kinase IC50
[5] = Homo sapiens, U-937, TNF production, human U937 cells stimulated with LPS, read-out: U937 Cell IC50
[6] = Homo sapiens, TNF production, LPS-stimulated U937 cells, read-out: U937 Cell % inhib @ conc.
[7] = in vitro P38-alpha kinase, read-out: P38 alpha kinase IC50
[8] = Homo sapiens, TNF production, U937 cells stimulated with LPS, read-out: U937 Cell % inhib @ conc.
[9] = @ 10.0 uM, TNF production, LPS-stimulated U937 cells

T1 sequence (Q16539 whole entry): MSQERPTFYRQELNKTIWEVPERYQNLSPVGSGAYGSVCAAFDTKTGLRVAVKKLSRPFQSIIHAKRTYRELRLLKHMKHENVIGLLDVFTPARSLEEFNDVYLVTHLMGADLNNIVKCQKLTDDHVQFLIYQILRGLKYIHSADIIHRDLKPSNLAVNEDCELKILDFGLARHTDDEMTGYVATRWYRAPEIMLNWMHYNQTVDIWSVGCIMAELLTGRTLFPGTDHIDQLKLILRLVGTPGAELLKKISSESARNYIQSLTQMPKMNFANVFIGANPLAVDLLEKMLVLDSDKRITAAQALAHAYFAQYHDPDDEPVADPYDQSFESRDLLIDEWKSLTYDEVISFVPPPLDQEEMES

SMILES: Cc1[nH]nc(-c2ccc(C(F)(F)F)cc2)c1-c1ccncc1 [Example A-48]
IC50 ([1]; Table 5, LPS-stimulated U937 cells, TNF-α, read-out: U937 Cell Assay IC50): 0.522 µM
IC50 (human p38 kinase alpha; activated human p38 kinase alpha, PHAS-I substrate, 50 μM unlabeled ATP, read-out: p38 kinase IC50): 1800 nM

SMILES: COc1ccc(CN(CCc2ccccc2)C(=O)Cn2nc(-c3ccc(F)cc3)c(-c3ccncc3)c2C)cc1 [Example B-2396]
IC50 ([1]; TNF production, U937 cells stimulated with LPS, read-out: U937 Cell IC50, uM or % inhib @ conc. (uM): IC50): > 10 µM
P38 alpha kinase IC50, uM or % inhib @ conc. (uM): % inhib (human p38 kinase alpha; @ 10.0 uM): 75.0% @

SMILES: O=C(NC(Cc1ccccc1)c1[nH]nc(-c2ccc(F)cc2)c1-c1ccncc1)c1ccc(F)cc1 (centres unmarked) [Example B-0800]
IC50 [1, 5]: > 1 µM
IC50 (human p38 kinase alpha; [4]): 1010 nM

SMILES: CCNC(=O)N1CCC(c2[nH]nc(-c3ccc(F)cc3)c2-c2ccncc2)CC1 [Example B-1381]
IC50 [1, 5]: 0.73 µM
IC50 (human p38 kinase alpha; [7]): 55 nM

SMILES: O=C(NC(Cc1ccccc1)c1[nH]nc(-c2ccc(F)cc2)c1-c1ccncc1)C1CCCN1 (centres unmarked) [Example B-0794]
U937 Cell % inhib @ conc. (uM) ([1]; @ 1.0 uM, TNF production in human U937 cells stimulated with LPS): 2.0% @
IC50 (human p38 kinase alpha; [4]): 2900 nM

SMILES: N#Cc1cccc(C(=O)NCCc2[nH]nc(-c3ccc(F)cc3)c2-c2ccncc2)c1 [Example B-1127]
inhibition at 1 µM [1, 8]: 7%
IC50 (human p38 kinase alpha; [4]): 710 nM

SMILES: CS(=O)(=O)c1ccc(CNC(=O)NCCCc2[nH]nc(-c3ccc(F)cc3)c2-c2ccncc2)cc1 [Example B-1312]
IC50 [1, 5]: > 1 µM
IC50 (human p38 kinase alpha; [7]): 350 nM

SMILES: C=CCN(C(=O)Cn1nc(-c2ccc(F)cc2)c(-c2ccncc2)c1C)C1CCCCC1 [Example B-2373]
U937 Cell % inhib @ conc. [1, 9]: 6% @
P38 alpha kinase % inhib @ conc. (human p38 kinase alpha; @ 100.0 uM): 50.0% @

SMILES: CC(NS(C)(=O)=O)c1[nH]nc(-c2ccc(F)cc2)c1-c1ccncc1 (centres unmarked) [Example B-0573]
IC50 ([1]; Homo sapiens, U-937, TNF production in human U937 cells stimulated with LPS, read-out: U937 Cell IC50): 1.7 µM
IC50 (human p38 kinase alpha; [4]): 360 nM

SMILES: N#Cc1cccc(S(=O)(=O)N2CCC(c3[nH]nc(-c4ccc(F)cc4)c3-c3ccncc3)CC2)c1 [Example B-1469]
inhibition at 1 µM [1, 6]: 14%
IC50 (human p38 kinase alpha; [7]): 370 nM

SMILES: Cc1c(-c2ccncc2)c(-c2ccc(F)cc2)nn1CC(=O)N(C)CCN(C)C [Example B-2375]
IC50 ([1]; TNF production, human U937 cells stimulated with LPS, read-out: U937 Cell IC50): > 10 µM
P38 alpha kinase % inhib @ conc. (human p38 kinase alpha; @ 100.0 uM): 62.0% @

More lines, main results first:

P38 alpha kinase % inhib @ conc. (uM) (human p38 kinase alpha; @ 1.0 uM): 51.0% @
SMILES: O=C(NCCc1[nH]nc(-c2ccc(F)cc2)c1-c1ccncc1)Nc1ccc(Br)cc1 [Example B-0938]
U937 Cell % inhib @ conc. (uM) [1, 2]: 29.0% @

IC50 (human p38 kinase alpha; [4]): 3240 nM
SMILES: CC(NC(=O)c1ccno1)c1[nH]nc(-c2ccc(F)cc2)c1-c1ccncc1 (centres unmarked) [Example B-0541]
inhibition at 1 µM [1, 3]: 28%

IC50 [1, 5]: > 1 µM
IC50 (human p38 kinase alpha; [4]): 3090 nM
SMILES: O=C(NC(Cc1ccccc1)c1[nH]nc(-c2ccc(F)cc2)c1-c1ccncc1)c1ccno1 (centres unmarked) [Example B-0808]

IC50 [1, 5]: > 1 µM
IC50 (human p38 kinase alpha; [4]): 4190 nM
SMILES: CNC(=O)CCC(NC(=O)c1ccno1)c1[nH]nc(-c2ccc(F)cc2)c1-c1ccncc1 (centres unmarked) [Example B-0869]

IC50 [1, 5]: 2.76 µM
inhibition at 1 µM (human p38 kinase alpha; @ 1.0 uM): 94%
SMILES: O=C(NCc1[nH]nc(-c2ccc(F)cc2)c1-c1ccncc1)c1ccc(F)cc1 [Example B-0042]

IC50 (human p38 kinase alpha; [7]): 1220 nM
SMILES: Cc1cccc(S(=O)(=O)N2CCC(c3[nH]nc(-c4ccc(F)cc4)c3-c3ccncc3)CC2)c1 [Example B-1467]
inhibition at 1 µM [1, 6]: 1%

P38 alpha kinase % inhib @ conc. (uM) (human p38 kinase alpha; @ 1.0 uM): 78.0% @
SMILES: O=C(NCCc1[nH]nc(-c2ccc(F)cc2)c1-c1ccncc1)NCc1ccccc1 [Example B-0939]
U937 Cell % inhib @ conc. (uM) [1, 2]: 14.0% @

IC50 (human p38 kinase alpha; [7]): 770 nM
SMILES: COc1ccc(Br)cc1S(=O)(=O)N1CCC(c2[nH]nc(-c3ccc(F)cc3)c2-c2ccncc2)CC1 [Example B-1446]
inhibition at 1 µM [1, 6]: 36%

IC50 (human p38 kinase alpha; [4]): 2220 nM
SMILES: COc1ccc(CC(=O)NC(C)c2[nH]nc(-c3ccc(F)cc3)c2-c2ccncc2)cc1 (centres unmarked) [Example B-0549]
inhibition at 1 µM [1, 3]: 22%

P38 alpha kinase % inhib @ conc. (human p38 kinase alpha; @ 10.0 uM): 58.0% @
SMILES: COC(=O)[C@H](CCSC)NC(=O)Cn1nc(-c2ccc(F)cc2)c(-c2ccncc2)c1C [Example B-2324]
U937 Cell % inhib @ conc. [1, 9]: 36.0% @

U937 Cell IC50, uM or % inhib @ conc. (uM): % inhib ([1]; @ 10.0 uM, TNF production, U937 cells stimulated with LPS): 13.0% @
P38 alpha kinase IC50, uM or % inhib @ conc. (uM): % inhib (human p38 kinase alpha; @ 100.0 uM): 26% @
SMILES: Cc1c(-c2ccncc2)c(-c2ccc(F)cc2)nn1CC(=O)N1CCCCC1CCN1CCCCC1 (centres unmarked) [Example B-2411]

P38 alpha kinase % inhib @ conc. (human p38 kinase alpha; @ 1.0 uM): 83% @
SMILES: O=C(NCc1[nH]nc(-c2ccc(F)cc2)c1-c1ccncc1)c1cccc(CCl)c1 [Example B-0065]
U937 Cell % inhib @ conc. [1, 2]: 21.0% @

IC50 (human p38 kinase alpha; [4]): 810 nM
SMILES: CNC(=O)CCC(NC(=O)C(C)C)c1[nH]nc(-c2ccc(F)cc2)c1-c1ccncc1 (centres unmarked) [Example B-0863]
inhibition at 1 µM [1, 8]: 25%

inhibition at 1 µM (human p38 kinase alpha; @ 1.0 uM): 71%
SMILES: O=C(NCc1[nH]nc(-c2ccc(F)cc2)c1-c1ccncc1)[C@@H]1C[C@@H]1c1ccccc1 [Example B-0002]
inhibition at 10 µM ([1]; Homo sapiens, U-937, @ 10.0 uM, TNF production, U937 cells stimulated with LPS, read-out: U937 Cell % inhib @ conc.): 28%
